Data: patent US6962931B2, “Self-emulsifying formulations of cholesteryl ester transfer protein inhibitors” (Pfizer Inc., priority 2001, dated 2005)
Converted amounts (≈) assume the structure as drawn. Like-named read-outs stand apart in the source and are kept apart here.

Experiment: Microsolubility estimate by repeated addition of vehicle
Format: physicochemical
Settings: thermodynamic from solid, read-out: Microsolubility
Procedure: (§1) For CETP inhibitors where quantities were limited, an estimate of solubility was obtained by addition of vehicle to a known quantity of the compound and mixing in an ultrasonicator bath for 90 minutes, followed by overnight equilibration at ambient temperature. Addition of vehicle was repeated until a solution was achieved.
as §1, with “limited or the samples were amorphous solids,” for “limited,”, “achieved. From the total volume of vehicle added to solubilize the CETP inhibitor compound, the solubility value, or so-called microsolubility, was calculated by the equation: Weight of sample (mgA)/vehicle volume (mL)=Microsolubility (mgA/mL)” for “achieved.”

[1] = Cremophor EL, organic solvent or mixture
[2] = Crodamol GTCC/Capmul MCM/Polysorbate 80 (40/40/20), oil or lipid
[3] = Corn, Safflower, Soybean oils, oil or lipid
[4] = PEG 400, organic solvent or mixture

Structure (SMILES) | Solubility [1] [mg/mL] | Solubility [2] [mg/mL] | Solubility (Olive oil, oil or lipid) [mg/mL] | Solubility (Sesame oil, oil or lipid) [mg/mL] | Solubility (Capmul MCM, oil or lipid) [mg/mL] | Solubility [3] [mg/mL] | Solubility (Crodamol GTCC, oil or lipid) [mg/mL] | Solubility [4] [mg/mL] | Solubility (Miglyol 812, oil or lipid) [mg/mL] | Solubility (Safflower oil, oil or lipid) [mg/mL] | Solubility (Corn oil/Labrafil (80/20), oil or lipid) [mg/mL] | Solubility (Corn oil/Polysorbate 80 (80/20), oil or lipid) [mg/mL] | Solubility (Peanut oil, oil or lipid) [mg/mL]
COC(=O)N(Cc1cc(C(F)(F)F)cc(C(F)(F)F)c1)[C@@H]1CC(C2CC2)N(C(=O)OC(C)C)c2ccc(C(F)(F)F)cc21 (stereo in doubt) [Compound H, [2S,4R] 4-[(3,5-Bis-trifluoromethyl-benzyl)-methoxycarbonyl-amino]-2-cyclopropyl-6-trifluoromethyl-3,4-dihydro-2H-quinoline-1-carboxylic acid isopropyl ester] | < 160 | – | > 300 | – | > 300 | > 300 | > 300 | < 160 | – | – | – | – | –
CCCOC(=O)N1c2ccc(C(F)(F)F)cc2[C@@H](N(Cc2cc(C(F)(F)F)cc(C(F)(F)F)c2)C(C)=O)CC1C1CC1 (stereo in doubt) [Compound M, [2R,4S] 4-[Acetyl-(3,5-bis-trifluoromethyl-benzyl)-amino]-2-cyclopropyl-6-trifluoromethyl-3,4-dihydro-2H-quinoline-1-carboxylic acid propyl ester] | – | – | < 300 | – | > 300 | – | – | – | > 300 | < 300 | – | – | –
CCCOC(=O)N1c2ccc(C(F)(F)F)cc2[C@@H](N(C=O)Cc2cc(C(F)(F)F)cc(C(F)(F)F)c2)CC1C1CC1 (stereo in doubt) [Compound N, [2R,4S] 4-[(3,5-Bis-trifluoromethyl-benzyl)-formyl-amino]-2-cyclopropyl-6-trifluoromethyl-3,4-dihydro-2H-quinoline-1-carboxylic acid propyl ester] | – | – | > 300 | – | > 300 | – | – | – | > 300 | > 300 | – | – | –
CCCOC(=O)N1c2ccc(C(F)(F)F)cc2[C@@H](N(Cc2cc(C(F)(F)F)cc(C(F)(F)F)c2)C(=O)OC)C[C@H]1CC [Compound F, [2R,4S] 4-[(3,5-Bis-trifluoromethyl-benzyl)-methoxycarbonyl-amino]-2-ethyl-6-trifluoromethyl-3,4-dihydro-2H-quinoline-1-carboxylic acid propyl ester] | – | – | 303 (≈ 493 mM) | – | – | – | – | – | < 100 | – | – | – | –
CCOC(=O)N1c2cc(C(F)(F)F)ccc2[C@@H](N(Cc2cc(C(F)(F)F)cc(C(F)(F)F)c2)C(=O)OC)C[C@H]1C [Compound I, [2R,4S] 4-[(3,5-Bis-trifluoromethyl-benzyl)-methoxycarbonyl-amino]-2-methyl-7-trifluoromethyl-3,4-dihydro-2H-quinoline-1-carboxylic acid ethyl ester] | – | > 20 | < 20 | < 20 | > 20 | < 20 | > 20 | < 20 | – | – | < 20 | > 20 | < 20
CCOC(=O)N1c2cc3c(cc2[C@H](N(Cc2cc(C(F)(F)F)cc(C(F)(F)F)c2)C(=O)OC)C[C@@H]1C)CCC3 [Compound J, [2S,4R] 4-[(3,5-Bis-trifluoromethyl-benzyl)-methoxycarbonyl-amino]-2-methyl-2,3,4,6,7,8-hexahydro-cyclopenta[g]quinoline-1-carboxylic acid ethyl ester] | – | > 100 | > 100 | > 100 | > 100 | > 100 | > 100 | 50 to 100 (≈ 89.5 to 179 mM) | – | – | – | – | > 100
CCOC(=O)N1c2ccc(C(F)(F)F)cc2[C@@H](N(Cc2cc(C(F)(F)F)cc(C(F)(F)F)c2)C(=O)OC)C[C@H]1C [Compound L, [2R,4S] 4-[(3,5-Bis-trifluoromethyl-benzyl)-methoxycarbonyl-amino]-2-methyl-6-trifluoromethyl-3,4-dihydro-2H-quinoline-1-carboxylic acid ethyl ester] | – | – | < 300 | – | > 300 | – | – | – | > 300 | > 300 | – | – | –
CCOC(=O)N1c2ccc(C(F)(F)F)cc2[C@@H](N(C=O)Cc2cc(C(F)(F)F)cc(C(F)(F)F)c2)C[C@H]1C [Compound Q, [2R,4S] 4-[(3,5-Bis-trifluoromethyl-benzyl)-formyl-amino]-2-methyl-6-trifluoromethyl-3,4-dihydro-2H-quinoline-1-carboxylic acid ethyl ester] | – | – | < 300 | – | > 300 | – | – | – | > 300 | < 300 | – | – | –

More lines, now with the values ahead:

Solubility [1] [mg/mL] | Solubility [2] [mg/mL] | Solubility (Olive oil, oil or lipid) [mg/mL] | Solubility (Sesame oil, oil or lipid) [mg/mL] | Solubility (Capmul MCM, oil or lipid) [mg/mL] | Solubility [3] [mg/mL] | Solubility (Crodamol GTCC, oil or lipid) [mg/mL] | Solubility [4] [mg/mL] | Solubility (Miglyol 812, oil or lipid) [mg/mL] | Solubility (Safflower oil, oil or lipid) [mg/mL] | Solubility (Corn oil/Labrafil (80/20), oil or lipid) [mg/mL] | Solubility (Corn oil/Polysorbate 80 (80/20), oil or lipid) [mg/mL] | Solubility (Peanut oil, oil or lipid) [mg/mL] | Structure (SMILES)
> 300 | > 300 | > 300 | > 300 | – | – | – | – | – | – | – | – | – | COC(=O)N(Cc1cc(C(F)(F)F)cc(C(F)(F)F)c1)[C@H]1CC(C2CC2)N(C(=O)OC(C)C)c2ccc(C(F)(F)F)cc21 (stereo in doubt) [Compound G, [2R,4S] 4-[(3,5-Bis-trifluoromethyl-benzyl)-methoxycarbonyl-amino]-2-cyclopropyl-6-trifluoromethyl-3,4-dihydro-2H-quinoline-1-carboxylic acid isopropyl ester]
– | – | < 300 | – | > 300 | – | – | – | > 300 | < 300 | – | – | – | CCOC(=O)N1c2ccc(C(F)(F)F)cc2[C@@H](N(Cc2cc(C(F)(F)F)cc(C(F)(F)F)c2)C(C)=O)C[C@H]1C [Compound O, [2R,4S] 4-[Acetyl-(3,5-bis-trifluoromethyl-benzyl)-amino]-2-methyl-6-trifluoromethyl-3,4-dihydro-2H-quinoline-1-carboxylic acid ethyl ester]
– | – | > 300 | – | > 300 | – | – | – | > 300 | < 300 | – | – | – | CCOC(=O)N1c2ccc(C(F)(F)F)cc2[C@@H](N(C=O)Cc2cc(C(F)(F)F)cc(C(F)(F)F)c2)C[C@H]1CC [Compound P, [2R,4S] 4-[(3,5-Bis-trifluoromethyl-benzyl)-formyl-amino]-2-ethyl-6-trifluoromethyl-3,4-dihydro-2H-quinoline-1-carboxylic acid ethyl ester]
